Values quoted from earlier work in patent US20100247649A1, “PHARMACEUTICAL FORMULATIONS COMPRISING TELMISARTAN AND HYDROCHLOROTHIAZIDE” (DR. REDDY'S LABORATORIES LTD., priority 2007, published 2010).

SMILES | Stability in alkaline conditions (alkaline conditions) | Aqueous solubility in the physiological pH range of the gastrointestinal tract (between pH 1 and 7) | Solubility in hydrochloric acid (hydrochloric acid) | Solubility in the pH range of 3 to 9 (pH range of 3 to 9) | Solubility in strong acids (strong acids (except hydrochloric acid)) | Solubility in strong bases (strong bases) | Solubility in water (water)
NS(=O)(=O)c1cc2c(cc1Cl)NCNS2(=O)=O [Hydrochlorothiazide, 6-chloro-3,4-dihydro-2H-1,2,4-benzothiadiazine-7-sulfonamide 1,1-dioxide] | degrades |  |  |  |  |  | 
CCCc1nc2c(C)cc(-c3nc4ccccc4n3C)cc2n1Cc1ccc(-c2ccccc2C(=O)O)cc1 [Telmisartan, 4′-[(1,4′-dimethyl-2′-propyl[2,6′-bi-1H-benzimidazol]-1′-yl)methyl]-[1,1′-biphenyl]-2-carboxylic acid] |  | very poor | insoluble | practically insoluble | sparingly soluble | soluble | practically insoluble
